Molecular target: T1, DYRK1B (Homo sapiens, UniProt Q9Y463)
T1 construct: Recombinant DYRK1B expressed in insect cells (Carna Biosciences)
Test: in vitro enzyme assay; MRM mass spectrometry of autophosphorylation sites
Format: biochemical

T1 sequence (Q9Y463 whole entry): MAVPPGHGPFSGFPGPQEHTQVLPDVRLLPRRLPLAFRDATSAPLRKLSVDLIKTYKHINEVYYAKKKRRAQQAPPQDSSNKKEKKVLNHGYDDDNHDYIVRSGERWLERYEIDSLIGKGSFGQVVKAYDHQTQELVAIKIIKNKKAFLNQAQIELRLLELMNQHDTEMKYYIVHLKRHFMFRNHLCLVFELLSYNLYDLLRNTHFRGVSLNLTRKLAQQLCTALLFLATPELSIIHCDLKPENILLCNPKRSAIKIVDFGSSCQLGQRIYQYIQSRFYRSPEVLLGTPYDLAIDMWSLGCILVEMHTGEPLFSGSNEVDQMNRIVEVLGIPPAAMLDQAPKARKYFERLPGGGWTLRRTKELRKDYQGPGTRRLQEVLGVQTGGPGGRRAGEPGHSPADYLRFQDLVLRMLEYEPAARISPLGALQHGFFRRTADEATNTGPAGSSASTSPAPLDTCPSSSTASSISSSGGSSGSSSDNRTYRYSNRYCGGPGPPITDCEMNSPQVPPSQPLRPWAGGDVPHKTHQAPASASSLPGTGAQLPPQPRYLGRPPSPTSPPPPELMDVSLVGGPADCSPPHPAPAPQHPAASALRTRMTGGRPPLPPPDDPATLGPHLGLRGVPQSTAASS

IC50: < 0.03 µM
Substance: AZ’294

From publication PMC4735261, “Identification of DYRK1B as a substrate of ERK1/2 and characterisation of the kinase activity of DYRK1B mutants from cancer and metabolic syndrome” (Cellular and Molecular Life Sciences: CMLS, 2015)
